Measurements published in article PMC4731787, “Structural basis for the recognition of two consecutive mutually interacting DPF motifs by the SGIP1 μ homology domain” (Scientific Reports, 2016).
Blank lines part the entries; values can stand above or below the substance they belong to. Where no end group is shown, it is not given here. GST = glutathione S-transferase fusion tag

Columns and labels:
[1] = target: T1, FCHo1 µHD (residues 623 to 889) (Homo sapiens, UniProt O14526); assay: ITC of Eps15 fragments with the FCHo1 μHD; format: binding; settings: FCHo1 μHD in cell titrated with fragment, single-site model
T1 construct: GST (N, cleaved yes); made in house; host or cells: Escherichia coli (as for the SGIP1 μHD)
T1 sequence (O14526 623-889): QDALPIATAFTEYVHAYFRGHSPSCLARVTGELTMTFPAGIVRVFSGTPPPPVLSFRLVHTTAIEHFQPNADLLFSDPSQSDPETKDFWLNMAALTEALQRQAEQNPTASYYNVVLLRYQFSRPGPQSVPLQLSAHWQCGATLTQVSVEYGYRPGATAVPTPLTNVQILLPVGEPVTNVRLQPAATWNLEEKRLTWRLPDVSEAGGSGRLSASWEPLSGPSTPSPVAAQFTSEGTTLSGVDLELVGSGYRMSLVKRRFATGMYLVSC
Experimental: (§1) For the majority of the ITC experiments, the SGIP1 μHD, its mutants, or the FCHo1 μHD, in 50 mM Tris-HCl buffer (pH 8.0) containing 50 mM NaCl, was loaded in the sample cell, in a volume of 1.42 ml, and titrated with various Eps15-derived fragments or peptides in the same buffer, with an initial 5 μl injection and subsequent 10 μl injections, for a total of 25 injections. The titrations were performed while the samples were stirred at 310 r.p.m. at 25 °C. Each injection was followed by an interval of 4 min, to allow baseline stabilization. For the other ITC experiments indicated in Supplementary Table 2, the Eps15-derived fragments or peptides in the sample cell were titrated with the SGIP1 or FCHo1 μHD. All ITC experiments were performed on a VP-ITC microcalorimeter (MicroCal, LLC) and repeated twice, and the data were processed with the program NITPIC[42]. The two data sets from each ITC experiment were analyzed by global weighted least-squares fitting with the program SEDPHAT[43]. Figures for the ITC data were created with the program GUSSI (http://biophysics.swmed.edu/MBR/software.html). To obtain the values of the traditional stoichiometric parameter N in our ITC data analyses (Supplementary Table 2), we used the values of the parameters of the incompetent fractions of proteins and ligands. […] The values of the incompetent fractions are between 0 and 1, whereas the other parameter affecting the traditional parameter N, the number of sites, was fixed as 1 and 2, for the single- and two-site models, respectively. Thus, in the two-site model, the values of N for the first and second sites are identical in our ITC data analyses (Supplementary Table 2).

[2] = target: T2, SGIP1 μHD (residues 552 to 828) (Homo sapiens, UniProt Q9BQI5); assay: ITC of Eps15 fragments with the SGIP1 μHD; format: binding; settings: for -TΔS / ΔG / ΔH: 25 °C
T2 construct: the SGIP1 μHD (residues 552 to 828); GST (N, cleaved yes); made in house; host or cells: Escherichia coli BL21-Gold (DE3) or Rosetta2
T2 sequence (Q9BQI5 552-828): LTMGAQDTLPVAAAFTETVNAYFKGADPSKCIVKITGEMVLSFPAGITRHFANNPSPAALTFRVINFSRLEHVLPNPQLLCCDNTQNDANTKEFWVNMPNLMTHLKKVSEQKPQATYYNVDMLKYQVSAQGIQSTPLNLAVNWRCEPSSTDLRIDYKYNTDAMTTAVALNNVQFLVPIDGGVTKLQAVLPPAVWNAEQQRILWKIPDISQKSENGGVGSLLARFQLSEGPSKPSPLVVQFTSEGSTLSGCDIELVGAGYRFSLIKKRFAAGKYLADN
Method in brief: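 Isothermal titration calorimetry was run at 25 °C in 50 mM Tris-HCl pH 8.0, 50 mM NaCl, mostly titrating Eps15 fragments or peptides into μHD protein in the cell (25 injections, 4 min apart). Some runs reversed the titration direction. Duplicate runs were globally fitted to single- or two-site models, with N derived from incompetent-fraction parameters.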

SGIP1 µHD K816E = target: T3, SGIP1 µHD K816E (Homo sapiens, UniProt Q9BQI5, K816E); assay: ITC of Eps15 fragments with the SGIP1 μHD K816E mutant; format: binding
T3 construct: the SGIP1 μHD (residues 552 to 828); GST (N, cleaved yes); made in house; host or cells: Escherichia coli (as for the wild-type μHD)
T3 sequence (Q9BQI5 552-828 K816E): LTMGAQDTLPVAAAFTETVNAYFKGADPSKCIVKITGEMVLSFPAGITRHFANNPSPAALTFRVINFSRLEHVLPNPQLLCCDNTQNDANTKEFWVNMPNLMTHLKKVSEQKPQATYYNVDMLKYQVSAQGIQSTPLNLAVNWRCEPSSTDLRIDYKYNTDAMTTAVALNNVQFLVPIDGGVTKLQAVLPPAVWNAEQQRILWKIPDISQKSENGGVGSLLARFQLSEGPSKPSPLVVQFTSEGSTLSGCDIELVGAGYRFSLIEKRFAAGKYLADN
Experimental: For the majority of the ITC experiments, the SGIP1 μHD, its mutants, or the FCHo1 μHD, in 50 mM Tris-HCl buffer (pH 8.0) containing 50 mM NaCl, was loaded in the sample cell, in a volume of 1.42 ml, and titrated with various Eps15-derived fragments or peptides in the same buffer, with an initial 5 μl injection and subsequent 10 μl injections, for a total of 25 injections. The titrations were performed while the samples were stirred at 310 r.p.m. at 25 °C. Each injection was followed by an interval of 4 min, to allow baseline stabilization. For the other ITC experiments indicated in Supplementary Table 2, the Eps15-derived fragments or peptides in the sample cell were titrated with the SGIP1 or FCHo1 μHD. All ITC experiments were performed on a VP-ITC microcalorimeter (MicroCal, LLC) and repeated twice, and the data were processed with the program NITPIC[42]. The two data sets from each ITC experiment were analyzed by global weighted least-squares fitting with the program SEDPHAT[43]. Figures for the ITC data were created with the program GUSSI (http://biophysics.swmed.edu/MBR/software.html). To obtain the values of the traditional stoichiometric parameter N in our ITC data analyses (Supplementary Table 2), we used the values of the parameters of the incompetent fractions of proteins and ligands. […]

[3] = target: SGIP1 μ homology domain (residues 552 to 828) (human) (UniProt Q9BQI5); assay: ITC; VP-ITC, 25 °C, 50 mM Tris-HCl pH 8.0, 50 mM NaCl; for the majority the μHD (SGIP1, its mutants or FCHo1) in the cell, titrated with Eps15 fragments or peptides, for others the reverse (Supplementary Table 2); repeated twice, global fit with SEDPHAT, single-site or two-site model
SGIP1 µHD A565E = assay: ITC of Eps15 fragments with the SGIP1 μHD A565E mutant; format: binding, human; settings: 25 °C, 50 mM Tris-HCl pH 8.0, 50 mM NaCl, mutant μHD in cell titrated with fragment, two runs
Experimental: as §1

SGIP1 µHD A563E = assay: ITC of Eps15 fragments with the SGIP1 μHD A563E mutant; format: binding, human; settings: 25 °C, 50 mM Tris-HCl pH 8.0, 50 mM NaCl, mutant μHD in cell titrated with fragment, two runs
Experimental: as §1

[4] = μHD in cell titrated with fragment, single-site model
[5] = μHD in cell titrated with fragment, single-site model, ± 68.3% confidence interval

Kd ([1]; 25 °C, 50 mM Tris-HCl pH 8.0, 50 mM NaCl, global fit of two runs, ± 68.3% confidence interval): 5.5 ± 1.4 µM | -TΔS ([1]; 25 °C): 0.748 kcal/mol | ΔG ([1]; 25 °C): -7.175 kcal/mol | ΔH ([1]; 25 °C, ± 68.3% confidence interval): -7.923 ± 1.098 kcal/mol | N (binding ratio of Eps15 fragment to FCHo1 μHD) ([1]; ± 68.3% confidence interval): 0.64 ± 0.06 | -TΔS [2, 4]: 3.482 kcal/mol | ΔG [2, 4]: -7.559 kcal/mol | ΔH [2, 5]: -11.041 ± 0.191 kcal/mol | N (binding ratio of Eps15 fragment to μHD) [2, 5]: 0.66 ± 0.01 | binding to SGIP1 μHD with Lys816 replaced by Glu (in words) (SGIP1 µHD K816E): abolished the binding | Kd (SGIP1 µHD K816E; 25 °C, 50 mM Tris-HCl pH 8.0, 50 mM NaCl, mutant μHD in cell titrated with fragment, two runs): below detection limit
Substance: Ac-YDPFGGDPFKGSDPFA-NH2 [Eps15-640–654]
binding to the SGIP1 μHD (in words) [2]: slightly stronger affinity than Eps15-622–637

fold reduction of the binding against the unreplaced fragment [3]: 2.4 fold
Substance: Eps15 two-DPF fragment, Asp of the C-terminal DPF motif replaced with Asn (peptide)

fold reduction of the binding against the unreplaced fragment [3]: 3.4 fold
Substance: Eps15 two-DPF fragment, Asp of the N-terminal DPF motif replaced with Asn (peptide)

Kd (SGIP1 µHD A565E): below detection limit | -TΔS [2, 4]: -2.159 kcal/mol | ΔG [2, 4]: -8.444 kcal/mol | ΔH [2, 5]: -6.285 ± 0.144 kcal/mol | Kd (SGIP1 µHD A563E): below detection limit
Substance: GST-Eps15-628–644: GST-tagged Eps15 fragment, residues 628–644, 3 DPF motifs ({GST}-SDPFKDDPFGKIDPFGG)
